Consider 7 molecules from patent publication US12281122B1, “PI3K inhibitors” (Cogent Biosciences, Inc., priority 2023, dated 2025).

Assay [1] deals with SKBR3 (PI3Kα-Wild Type) cell line. As to the kind of experiment: HTRF phospho-AKT(S473) cell assay in SKBR3 cells. The format is cell-based, human. How it is done: (§1) Compounds in the present disclosure were tested in a cell based HTRF phospho-AKT(S473) (CisBio/Revvity) assay in human breast cancer cell lines as a measurement of PIK3CA activity through measuring AKT, a downstream effector. The activity of mutant PI3Kα-H1047R and PI3Kα-Wild Type was measured in the T47D (PI3Kα-H1047R) and SKBR3 (PI3Kα-Wild Type) cell lines, respectively. T47D cells were plated at 20,000 cells per well in 50 μL in RPMI medium supplemented with 10% FBS and 0.2 units/mL insulin, in 384 well plates. SKBR3 cells were plated at 25,000 cells per well in 50 μL in McCoy's 5A medium supplemented with 10% FBS, in 384 well plates. Cells were plated using a Combi Multidrop reagent dispenser (ThermoFisher), and placed in 5% CO2, 37° C. incubator overnight to adhere.
(§2) The next day, cells were treated with either compounds or vehicle (DMSO) in a 12-fold dose response curve of 1:3 dilutions, with 5 μM and 10 μM as the top concentrations for the T47D and SKBR3 cell lines, respectively. Compound treatment was facilitated via the D300e digital dispenser (Tecan), with a maximum DMSO concentration of 0.5%. Following compound addition, cell plates were incubated for 2 hours in 5% CO2, 37° C. incubator. The SKBR3 cells were stimulated and treated with 70 ng/ml PDGF-BB ligand (ThermoFisher) for the remaining 15 minutes of the incubation. Following compound incubation, compound and media was aspirated from the cells and 25 μL of supplemented lysis buffer was added per well, and incubated for 45 minutes at room temperature, shaking at 600 rpm. Next, 16 μL of cell lysate was added to a 384 well low volume ProxyPlate (Perkin Elmer/Revvity) mixed with 4 μL of HTRF antibodies (1:1 Eu Cryptate+d2 Cryptate). HTRF supplemented lysis buffer and antibody reagents were used from the phosphor-AKT(S473) HTRF assay kit (CisBio/Revvity), following manufacturers protocol recommendations. Plates were sealed and incubated at 4° C. overnight.
(§3) The following day, plates were centrifuged for 1 minute at 1000 rpm, and read on a PHERAstar plate reader. IC50 values were calculated using Spotfire software.
A general note: In TR-FRET formats the signal depends on donor and acceptor labels being close together.

The test system of assay [2] is T47D (PI3Kα-H1047R) cell line. As to the kind of experiment: HTRF phospho-AKT(S473) cell assay in T47D cells. The format is cell-based, human. The method, then:
as §1, §2, §3

Where [3] appears, read: Homo sapiens, SK-BR-3; SKBR3 (PI3Kα-Wild Type) cells, HTRF phospho-AKT(S473), 2 hours compound incubation, PDGF-BB stimulated.
The mark [4] stands for this setting: Homo sapiens; T47D (PI3Kα-H1047R) cells, HTRF phospho-AKT(S473), 2 hours compound incubation.
Setting [5] is: Homo sapiens, SK-BR-3; HTRF phospho-AKT(S473), SKBR3 (PI3Kα-Wild Type) cells, 2 hours compound incubation, PDGF-BB stimulated.
[6] abbreviates: Homo sapiens; HTRF phospho-AKT(S473), T47D (PI3Kα-H1047R) cells, 2 hours compound incubation.

As to `Cc1cc([C@@H](C)Nc2ccc(Cl)nc2C(=O)NS(C)(=O)=O)c2nc(N3CCC[C@H](c4cn[nH]c4)C3)n(C)c(=O)c2c1` (mixture of isomers) [Compound 168, 3-(((R)-1-(2-((RS)-3-(1H-pyrazol-4-yl)piperidin-1-yl)-3,6-dimethyl-4-oxo-3,4-dihydroquinazolin-8-yl)ethyl)amino)-6-chloro-N-(methylsulfonyl) picolinamide], the IC50 in assay [1] (setting [3]) is 1 to 5 µM; in assay [2] (setting [4]), < 0.25 µM.

For `Cc1cc([C@@H](C)Nc2ccc(Cl)nc2C(=O)NS(C)(=O)=O)c2nc(N3CCC[C@@H](c4ccc(C)nc4)C3)n(C)c(=O)c2c1` (mixture of isomers) [Compound 215, 6-chloro-3-(((R)-1-(3,6-dimethyl-2-((RS)-3-(6-methylpyridin-3-yl)piperidin-1-yl)-4-oxo-3,4-dihydroquinazolin-8-yl)ethyl)amino)-N-(methylsulfonyl) picolinamide], the IC50 is 1 to 5 µM in assay [1] (setting [3]) and < 0.25 µM in assay [2] (setting [4]).

With `Cc1cc([C@@H](C)Nc2ccc(Cl)nc2C(=O)NS(C)(=O)=O)c2nc(N3CCC[C@@H](c4nccc(C)n4)C3)n(C)c(=O)c2c1` (mixture of isomers) [Compound 633, 6-chloro-3-(((R)-1-(3,6-dimethyl-2-((RS)-3-(4-methylpyrimidin-2-yl)piperidin-1-yl)-4-oxo-3,4-dihydroquinazolin-8-yl)ethyl)amino)-N-(methylsulfonyl) picolinamide], the figures for the IC50 in assay [1] (setting [5]) and in assay [2] (setting [6]) were ≥ 5 µM and 0.25 to 0.5 µM, respectively.

Take `CO[C@H]1CCC2(CCN(c3nc4c([C@@H](C)Nc5ccc(Cl)nc5C(=O)NS(C)(=O)=O)cc(C)cc4c(=O)n3C)CC2)OC1` (mixture of isomers) [Compound 721, 6-chloro-3-(((R)-1-(2-((RS)-3-methoxy-1-oxa-9-azaspiro[5.5]undecan-9-yl)-3,6-dimethyl-4-oxo-3,4-dihydroquinazolin-8-yl)ethyl)amino)-N-(methylsulfonyl) picolinamide]: the IC50 in assay [1] (setting [5]) is ≥ 5 µM; in assay [2] (setting [6]), 0.25 to 0.5 µM.

On to `Cc1cc([C@@H](C)Nc2ccc(Cl)nc2C(=O)NS(C)(=O)=O)c2nc([C@H]3CCCN(c4nccc(C)n4)C3)n(C)c(=O)c2c1` (mixture of isomers) [Compound 756, 6-chloro-3-(((R)-1-(3,6-dimethyl-2-((RS)-1-(4-methylpyrimidin-2-yl)piperidin-3-yl)-4-oxo-3,4-dihydroquinazolin-8-yl)ethyl)amino)-N-(methylsulfonyl) picolinamide], for which the IC50 in assay [1] (setting [5]) is ≥ 5 µM; in assay [2] (setting [6]), 0.5 to 1 µM.

In the case of `Cc1cc([C@@H](C)Nc2ccc(Cl)nc2C(=O)NS(C)(=O)=O)c2nc(N3C[C@@H]4CC(c5cnc(C)nc5)C[C@H]4C3)n(C)c(=O)c2c1` (mixture of isomers) [Compound 762, 6-chloro-3-(((R)-1-(3,6-dimethyl-2-((3aRS,6aRS)-5-(2-methylpyrimidin-5-yl)hexahydrocyclopenta [c]pyrrol-2(1H)-yl)-4-oxo-3,4-dihydroquinazolin-8-yl)ethyl)amino)-N-(methylsulfonyl) picolinamide], the figures for the IC50 in assay [1] (setting [5]) and in assay [2] (setting [6]) were ≥ 5 µM and 0.25 to 0.5 µM, respectively.

Turning to `Cc1cc([C@@H](C)Nc2ccc(Cl)nc2C(=O)NS(C)(=O)=O)c2nc(N3C[C@@H]4C[C@H]3C[C@@H]4c3nn(C)cc3F)n(C)c(=O)c2c1` (relative stereo) [Compound 760, 6-chloro-3-(((R)-1-(2-((1R*,4S*,5R*)-5-(4-fluoro-1-methyl-1H-pyrazol-3-yl)-2-azabicyclo[2.2.1]heptan-2-yl)-3,6-dimethyl-4-oxo-3,4-dihydroquinazolin-8-yl)ethyl)amino)-N-(methylsulfonyl) picolinamide], the half-inhibitory concentration (IC50) in assay [2] (HTRF phospho-AKT(S473), T47D (PI3Kα-H1047R) cells, 2 hours compound incubation) fell in the range of 0.25 to 0.5 µM.

Broadly, the IC50 is the midpoint of a concentration-inhibition curve. A higher IC50 goes with lower potency.
